Legend:
[1] = cited from earlier work
[2] = Degree of permeation of hydrogen peroxide through transwell membrane according to anion irradiation; conditions: 10 minutes, room temperature, composition with 15% by weight hydrogen peroxide and 25 nM potassium triphosphate
Method: Two identical transwell membranes were prepared by the above-described process, and one of them was irradiated with anions at room temperature for 10 minutes using an anion irradiator (trade name: Bluen: BN-108), and the other one was allowed to stand at room temperature for 10 minutes without irradiating anions.
Thereafter, the concentration of hydrogen peroxide escaped from each transwell membrane to the outside was titrated to calculate the ratio of hydrogen peroxide that passed through the membrane.

| SMILES | pKa [1] | ratio of hydrogen peroxide escaped from the transwell membrane to the outside ([2]; anion-irradiated) [% by weight] | ratio of hydrogen peroxide escaped from the transwell membrane to the outside ([2]; non-irradiated) [% by weight] |
| --- | --- | --- | --- |
| O=P([O-])([O-])OP(=O)([O-])OP(=O)([O-])[O-].[K+].[K+].[K+].[K+].[K+] [potassium triphosphate] | 12.38 |  |  |
| OO [hydrogen peroxide] |  | 72 | 51 |
